Results on 33 compounds are retold here after patent publication US9073821B2, “Hydroxamic acid derivative” (priority 2010, dated 2015).

Some results are limits rather than exact numbers.

One test deals with Pseudomonas aeruginosa LpxC enzyme (Pseudomonas aeruginosa (strain ATCC 15692 / DSM 22644 / CIP 104116 / JCM 14847 / LMG 12228 / 1C / PRS 101 / PAO1), UniProt P47205). As to the kind of experiment: biochemical. It counts as biochemical. Conditions: class symbols A/B/C by IC50; Table 3; read-out: Enzyme inhibitory activity (inhibitory activity on Pseudomonas aeruginosa LpxC enzyme).
Take `CNC(=O)C(C(=O)NO)N(C)C(=O)c1ccc(C#Cc2ccc(CN3CC(OC)C3)cc2)cc1` (stereo not drawn) [Compound 505, N-hydroxy-2-[{[4-({4-[(3-methoxyazetidin-1-yl)methyl]phenyl}ethynyl)phenyl]carbonyl}(methyl)amino]-N′-methylpropanediamide]: the IC50 is less than 10 nM. `CNC(=O)[C@@](C)(C(=O)NO)N(C)C(=O)c1ccc(C#C/C=C/CCCOC)cc1` [Compound 597, (2S)-N-hydroxy-2-[{4-[(3E)-7-methoxyhept-3-en-1-yn-1-yl]benzoyl}(methyl)amino]-N′,2-dimethylpropanediamide]: the IC50 was less than 10 nM. For `CNC(=O)C(C(=O)NO)N(C)C(=O)c1ccc(-c2ccc(-c3ccc(CO)o3)cc2)cc1` (stereo not drawn) [Compound 499, N-hydroxy-2-[({4′-[5-(hydroxymethyl)furan-2-yl]biphenyl-4-yl}carbonyl)(methyl)amino]-N′-methylpropanediamide], the IC50 was less than 10 nM. Turning to `CNC(=O)C(C(=O)NO)N(C)C(=O)c1ccc(C#Cc2ccc(CN3CC(C)(C)C3)cc2)cc1` (stereo not drawn) [Compound 525, 2-[{[4-({4-[(3,3-dimethylazetidin-1-yl)methyl]phenyl}ethynyl)phenyl]carbonyl}(methyl)amino]-N-hydroxy-N′-methylpropanediamide], the IC50 was 10 to 100 nM. On the same count and under the same terms, the figure for `CCOC1CN(Cc2ccc(C#Cc3ccc(C(=O)N(C)C(C(=O)NC)C(=O)NO)cc3)c(C)c2)C1` (stereo not drawn) [Compound 568, 2-[{[4-({4-[(3-ethoxyazetidin-1-yl)methyl]-2-methylphenyl}ethynyl)phenyl]carbonyl}(methyl)amino]-N-hydroxy-N′-methylpropanediamide] is less than 10 nM; for `CNC(=O)C(C(=O)NO)N(C)C(=O)c1ccc(C#CC#Cc2cnn(C)c2)cc1` (stereo not drawn) [Compound 511, N-hydroxy-N′-methyl-2-[methyl({4-[4-(1-methyl-1H-pyrazol-4-yl)buta-1,3-diyn-1-yl]phenyl}carbonyl)amino]propanediamide] it is less than 10 nM.

Still in this test, the particulars now being: inhibitory activity on Pseudomonas aeruginosa LpxC enzyme, class symbols A/B/C; read-out: Enzyme inhibitory activity.
As to `CNC(=O)C(C(=O)NO)N(C)C(=O)c1ccc(-c2ccc(SC)nc2)cc1` (stereo not drawn) [Compound 469, N-hydroxy-N′-methyl-2-[methyl({4-[6-(methylsulfanyl)pyridin-3-yl]phenyl}carbonyl)amino]propanediamide], the IC50 is 10 to 100 nM.

Take `CCCNC(=O)c1ccc(-c2ccc(C(=O)N(C)C(C(=O)NC)C(=O)NO)cc2)cc1` (stereo not drawn) [Compound 257, N-[1-(hydroxyamino)-3-(methylamino)-1,3-dioxopropan-2-yl]-N-methyl-N′-propylbiphenyl-4,4′-dicarboxamide]: the IC50 lay within 10 to 100 nM. As for `CNC(=O)C(C(=O)NO)N(C)C(=O)c1ccc(C#CC#Cc2ccc(CNCC(C)(C)C)cc2)cc1` (stereo not drawn) [Compound 493, 2-[({4-[4-(4-{[(2,2-dimethylpropyl)amino]methyl}phenyl)buta-1,3-diyn-1-yl]phenyl}carbonyl)(methyl)amino]-N-hydroxy-N′-methylpropanediamide], the IC50 was less than 10 nM. Still for that read-out and setting: the result for `CNC(=O)C(C(=O)NO)N(C)C(=O)c1ccc(-c2ccc(S(C)(=O)=O)cc2)cc1` (stereo not drawn) [Compound 352, N-hydroxy-N′-methyl-2-(methyl {[4′-(methylsulfonyl)biphenyl-4-yl]carbonyl}amino)propanediamide] reads 10 to 100 nM.

For the compound `CNC(=O)C(C(=O)NO)N(C)C(=O)c1ccc(C#Cc2ccnc(C)c2)cc1` (stereo not drawn) [Compound 464, N-hydroxy-N′-methyl-2-[methyl({4-[(2-methylpyridin-4-yl)ethynyl]phenyl}carbonyl)amino]propanediamide], the IC50 is 10 to 100 nM.

Consider `CNC(=O)C(NC(=O)c1ccc(-c2ccc(OCCOCCOCCO)cc2)cc1)C(=O)NO` (stereo not drawn) [Compound 13, N-hydroxy-2-{[(4′-{2-[2-(2-hydroxyethoxy)ethoxy]ethoxy}biphenyl-4-yl)carbonyl]amino}-N′-methylpropanediamide], for which the IC50 was 10 to 100 nM. Take `CNC(=O)C(C(=O)NO)N(C)C(=O)c1ccc(-c2ccc(/C=N/OC)cc2)cc1` (stereo not drawn) [Compound 260, N-hydroxy-2-[({4′-[(E)-(methoxyimino)methyl]biphenyl-4-yl}carbonyl)(methyl)amino]-N′-methylpropanediamide]: the IC50 was less than 10 nM. The same measure, in the same setting: the figure for `CNC(=O)C(C(=O)NO)N(C)C(=O)c1ccc(-c2ccc(Cc3nn[nH]n3)cc2)cc1` (stereo not drawn) [Compound 60, N-hydroxy-N′-methyl-2-(methyl {[4′-(2H-tetrazol-5-ylmethyl)biphenyl-4-yl]carbonyl}amino)propanediamide] is greater than 100 nM.

Regarding `CNC(=O)C(C(=O)NO)N(C)C(=O)c1ccc(-c2cc3ccccc3o2)cc1` (stereo not drawn) [Compound 312, 2-[{[4-(1-benzofuran-2-yl)phenyl]carbonyl}(methyl)amino]-N-hydroxy-N′-methylpropanediamide], the IC50 is less than 10 nM. For `O=C(NC(C(=O)NO)C(=O)NCc1ccccn1)c1ccc(-c2ccc(OCCO)cc2)cc1` (stereo not drawn) [Compound 130, N-hydroxy-2-({[4′-(2-hydroxyethoxy)biphenyl-4-yl]carbonyl}amino)-N′-(pyridin-2-ylmethyl)propanediamide], the IC50 was less than 10 nM. In the case of `CCCNC(=O)C(C(=O)NO)N(C)C(=O)c1ccc(-c2ccccc2)cc1` (stereo not drawn) [Compound 171, 2-[(biphenyl-4-ylcarbonyl)(methyl)amino]-N-hydroxy-N′-propylpropanediamide], the IC50 is greater than 100 nM. Consider `CNC(=O)C(NC(=O)c1ccc(C#Cc2ccc(NCCO)cc2)cc1)C(=O)NO` (stereo not drawn) [Compound 115, N-hydroxy-2-{[4-({4-[(2-hydroxyethyl)amino]phenyl}ethynyl)benzoyl]amino}-N′-methylpropanediamide], for which the IC50 was less than 10 nM.

`CNC(=O)C(C(=O)NO)N(C)C(=O)c1ccc(C#Cc2ccc(CNC3CCCCC3)cc2)cc1` (stereo not drawn) [Compound 318, 2-[{[4-({4-[(cyclohexylamino)methyl]phenyl}ethynyl)phenyl]carbonyl}(methyl)amino]-N-hydroxy-N′-methylpropanediamide]: the IC50 is 10 to 100 nM. On to `CNC(=O)C(C(=O)NO)N(C)C(=O)c1ccc(C#Cc2ccc(CNCCF)cc2)cc1` (stereo not drawn) [Compound 300, 2-[({4-[(4-{[(2-fluoroethyl)amino]methyl}phenyl)ethynyl]phenyl}carbonyl)(methyl)amino]-N-hydroxy-N′-methylpropanediamide], for which the IC50 was less than 10 nM. As to `CNC(=O)C(C(=O)NO)N(C)C(=O)c1ccc(-c2ccc(C)cc2F)cc1` (stereo not drawn) [Compound 23, 2-{[(2′-fluoro-4′-methylbiphenyl-4-yl)carbonyl](methyl)amino}-N-hydroxy-N′-methylpropanediamide], the IC50 was less than 10 nM. For `CNC(=O)C(C(=O)NO)N(C)C(=O)c1ccc(-c2ccc(N3CC(OC)C3)cc2)cc1` (stereo not drawn) [Compound 229, N-hydroxy-2-[{[4′-(3-methoxyazetidin-1-yl)biphenyl-4-yl]carbonyl}(methyl)amino]-N′-methylpropanediamide], the IC50 is less than 10 nM.

As to `CNC(=O)C(C(=O)NO)N(C)C(=O)c1ccc(C#Cc2ccoc2)cc1` (stereo not drawn) [Compound 461, 2-[{[4-(furan-3-ylethynyl)phenyl]carbonyl}(methyl)amino]-N-hydroxy-N′-methylpropanediamide], the IC50 was 10 to 100 nM.

Turning to `CNC(=O)C(C(=O)NO)N(C)C(=O)c1ccc(-c2ccc(CCCO)cc2)cc1` (stereo not drawn) [Compound 165, N-hydroxy-2-[{[4′-(3-hydroxypropyl)biphenyl-4-yl]carbonyl}(methyl)amino]-N′-methylpropanediamide], the IC50 was less than 10 nM. Turning to `CNC(=O)C(C(=O)NO)N(C)C(=O)c1ccc(C2CCCCC2)cc1` (stereo not drawn) [Compound 30, 2-[(4-cyclohexylbenzoyl)(methyl)amino]-N-hydroxy-N′-methylpropanediamide], the IC50 was 10 to 100 nM.

On to `CNC(=O)C(NC(=O)c1ccc(OC(F)(F)F)cc1)C(=O)NO` (stereo not drawn) [Compound 16, N-hydroxy-N′-methyl-2-{[4-(trifluoromethoxy)benzoyl]amino}propanediamide], for which the IC50 is greater than 100 nM. As to `CNC(=O)C(C(=O)NO)N(C)C(=O)c1ccc(-c2ccc(F)cn2)cc1` (stereo not drawn) [Compound 108, 2-{[4-(5-fluoropyridin-2-yl)benzoyl](methyl)amino}-N-hydroxy-N′-methylpropanediamide], the IC50 is greater than 100 nM. For the compound `CNC(=O)C(C(=O)NO)N(C)C(=O)c1ccc(C#Cc2ccc(CNCc3ccccc3)cc2)cc1` (stereo not drawn) [Compound 330, 2-[{[4-({4-[(benzylamino)methyl]phenyl}ethynyl)phenyl]carbonyl}(methyl)amino]-N-hydroxy-N′-methylpropanediamide], the IC50 was less than 10 nM. `CNC(=O)C(C(=O)NO)N(C)C(=O)c1ccc(C#Cc2coc(CNCC(F)(F)F)c2)cc1` (stereo not drawn) [Compound 488, N-hydroxy-N′-methyl-2-[methyl({4-[(5-{[(2,2,2-trifluoroethyl)amino]methyl}furan-3-yl)ethynyl]phenyl}carbonyl)amino]propanediamide]: the IC50 was less than 10 nM. Still for that read-out and setting: the result for `CCOCc1ccc(-c2ccc(C(=O)N(C)C(C(=O)NC)C(=O)NO)cc2)cc1` (stereo not drawn) [Compound 285, 2-[{[4′-(ethoxymethyl)biphenyl-4-yl]carbonyl}(methyl)amino]-N-hydroxy-N′-methylpropanediamide] reads less than 10 nM; that for `CCCCOc1ccc(C(=O)N(C)C(C(=O)NC)C(=O)NO)cc1` (stereo not drawn) [Compound 35, 2-[(4-butoxybenzoyl)(methyl)amino]-N-hydroxy-N′-methylpropanediamide], 10 to 100 nM; that for `CCCCCNc1ccc(-c2ccc(C(=O)N(C)C(C(=O)NC)C(=O)NO)cc2)cn1` (stereo not drawn) [Compound 475, N-hydroxy-N′-methyl-2-[methyl({4-[6-(pentylamino)pyridin-3-yl]phenyl}carbonyl)amino]propanediamide], 10 to 100 nM. In the case of `O=C(NC(C(=O)NO)C(=O)NCCO)c1ccc(-c2ccc(OCCO)cc2)cc1` (stereo not drawn) [Compound 122, N-hydroxy-2-({[4′-(2-hydroxyethoxy)biphenyl-4-yl]carbonyl}amino)-N′-(2-hydroxyethyl)propanediamide], the IC50 is 10 to 100 nM.
